# Source: patent publication US20080234262A1 (Wyeth, priority 2007, published 2008)
# Legend:
# prostate line LNCap = assay: In vitro cell culture growth assay (MTS), LNCap; format: cell-based, human; conditions: Homo sapiens, LNCaP, 72 h, LNCap cells, three days after drug treatment;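 also: viable cell density read by absorbance at 490 nm, growth expressed as percent of vehicle-treated cells on the same plate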
# breast line MDA468 = assay: In vitro cell culture growth assay (MTS), MDA468; format: cell-based, human; conditions: Homo sapiens, 72 h, MDA468 cells, three days after drug treatment
# Outline: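 Growth measured as percent of same-plate vehicle control by MTS metabolic dye conversion (A490). Breast MDA468 and prostate LNCap cells, plated a day ahead, were exposed to compounds for 3 days.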
# PI3K = PI3K (Homo sapiens, UniProt P42336); assay: Fluorescence polarization assay for PI3K; format: biochemical; conditions: PI3Kα; read-out: PI3Kα IC50;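 also: PI3K kinase reaction on PIP2 with ATP, 30-60 min, product sensed by GST-GRP with red probe in fluorescence polarization (mP), controls without enzyme and at zero time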
# PI3K, sequence (P42336 whole entry): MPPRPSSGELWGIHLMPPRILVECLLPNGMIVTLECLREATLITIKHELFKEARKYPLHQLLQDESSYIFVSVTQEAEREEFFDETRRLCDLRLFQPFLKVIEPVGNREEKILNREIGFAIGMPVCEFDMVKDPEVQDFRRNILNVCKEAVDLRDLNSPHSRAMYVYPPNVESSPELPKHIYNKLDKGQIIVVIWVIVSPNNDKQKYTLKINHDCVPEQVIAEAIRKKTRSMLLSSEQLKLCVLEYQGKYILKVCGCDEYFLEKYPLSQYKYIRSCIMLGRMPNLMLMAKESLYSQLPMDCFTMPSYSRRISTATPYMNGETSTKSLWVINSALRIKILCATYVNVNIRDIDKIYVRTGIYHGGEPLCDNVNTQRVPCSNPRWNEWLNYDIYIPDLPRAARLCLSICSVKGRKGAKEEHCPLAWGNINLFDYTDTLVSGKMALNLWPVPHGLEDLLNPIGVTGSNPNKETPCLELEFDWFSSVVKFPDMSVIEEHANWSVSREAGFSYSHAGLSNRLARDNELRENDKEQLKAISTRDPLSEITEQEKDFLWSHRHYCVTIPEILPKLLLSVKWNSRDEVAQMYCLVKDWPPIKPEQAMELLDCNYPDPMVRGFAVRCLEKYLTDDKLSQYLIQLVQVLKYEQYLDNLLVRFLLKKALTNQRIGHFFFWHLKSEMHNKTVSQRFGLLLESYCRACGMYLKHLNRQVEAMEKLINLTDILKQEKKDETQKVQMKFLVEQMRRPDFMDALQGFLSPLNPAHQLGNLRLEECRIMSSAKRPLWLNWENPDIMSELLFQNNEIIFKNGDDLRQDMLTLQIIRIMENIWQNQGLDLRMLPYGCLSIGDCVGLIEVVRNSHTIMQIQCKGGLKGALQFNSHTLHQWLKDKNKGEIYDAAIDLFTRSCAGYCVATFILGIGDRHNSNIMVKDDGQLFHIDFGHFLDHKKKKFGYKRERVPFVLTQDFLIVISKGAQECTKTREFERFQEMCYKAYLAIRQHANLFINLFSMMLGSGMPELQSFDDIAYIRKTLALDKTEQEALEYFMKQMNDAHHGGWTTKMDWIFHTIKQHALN
# PI3K, sequence (P27986 whole entry partner): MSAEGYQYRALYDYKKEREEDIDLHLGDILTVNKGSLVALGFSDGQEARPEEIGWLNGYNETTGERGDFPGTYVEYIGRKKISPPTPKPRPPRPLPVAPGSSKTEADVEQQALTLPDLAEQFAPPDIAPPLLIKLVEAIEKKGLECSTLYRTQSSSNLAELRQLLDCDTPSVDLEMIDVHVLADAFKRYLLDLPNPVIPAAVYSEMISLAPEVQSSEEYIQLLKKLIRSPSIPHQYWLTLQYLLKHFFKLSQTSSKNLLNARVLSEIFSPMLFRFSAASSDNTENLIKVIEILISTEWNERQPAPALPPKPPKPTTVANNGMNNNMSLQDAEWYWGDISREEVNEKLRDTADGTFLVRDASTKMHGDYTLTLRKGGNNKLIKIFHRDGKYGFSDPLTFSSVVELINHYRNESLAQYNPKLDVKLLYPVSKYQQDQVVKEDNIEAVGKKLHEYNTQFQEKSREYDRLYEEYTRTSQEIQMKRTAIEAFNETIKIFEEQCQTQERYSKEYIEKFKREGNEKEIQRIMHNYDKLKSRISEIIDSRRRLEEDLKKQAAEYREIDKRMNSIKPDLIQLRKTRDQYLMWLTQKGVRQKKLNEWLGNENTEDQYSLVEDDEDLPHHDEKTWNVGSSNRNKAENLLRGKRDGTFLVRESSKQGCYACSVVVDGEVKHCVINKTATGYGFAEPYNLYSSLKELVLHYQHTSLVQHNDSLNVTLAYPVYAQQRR
Compound,IC50 (prostate line LNCap),IC50 (breast line MDA468),IC50 (PI3K)
"CC(C)OC(=O)N1CCC(n2ncc3c(N4CCOCC4)nc(-c4ccc(N)cc4)nc32)CC1 [Compound 830, isopropyl 4-[6-(4-aminophenyl)-4-morpholin-4-yl-1H-pyrazolo[3,4-d]pyrimidin-1-yl]piperidine-1-carboxylate]",1800 nM,16000 nM,12000 nM
"CNC(=S)Nc1ccc(-c2nc(N3CCOCC3)c3cnn(C4CCN(C(=O)OC(C)C)CC4)c3n2)cc1 [Compound 831, isopropyl 4-[6-(4-{[(methylamino)carbonothioyl]amino}phenyl)-4-morpholin-4-yl-1H-pyrazolo[3,4-d]pyrimidin-1-yl]piperidine-1-carboxylate]",50 nM,390 nM,236 nM
"CN/C(=N\c1ccc(-c2nc(N3CCOCC3)c3cnn(C4CCN(C(=O)OC(C)C)CC4)c3n2)cc1)SC [Compound 832, isopropyl 4-[6-(4-{[(1E)-(methylamino)(methylthio)methylene]amino}phenyl)-4-morpholin-4-yl-1H-pyrazolo[3,4-d]pyrimidin-1-yl]piperidine-1-carboxylate]",2000 nM,3700 nM,8000 nM
"CC(C)OC(=O)N1CCC(n2ncc3c(N4CCOCC4)nc(-c4ccc(NC(=O)NCCO)cc4)nc32)CC1 [Compound 834, isopropyl 4-[6-(4-{[(2-hydroxyethyl)carbamoyl]amino}phenyl)-4-morpholin-4-yl-1H-pyrazolo[3,4-d]pyrimidin-1-yl]piperidine-1-carboxylate]",220 nM,180 nM,450 nM
"CC(C)OC(=O)N1CCC(n2ncc3c(N4CCOCC4)nc(-c4ccc(NC(=O)Nc5ccccc5)cc4)nc32)CC1 [Compound 836, isopropyl 4-(6-{4-[(anilinocarbonyl)amino]phenyl}-4-morpholin-4-yl-1H-pyrazolo[3,4-d]pyrimidin-1-yl)piperidine-1-carboxylate]",58 nM,170 nM,56 nM
"CC(C)OC(=O)N1CCC(n2ncc3c(N4CCOCC4)nc(-c4ccc(NC(=O)Nc5ccccn5)cc4)nc32)CC1 [Compound 837, isopropyl 4-(4-morpholin-4-yl-6-{4-[(pyridin-2-ylcarbamoyl)amino]phenyl}-1H-pyrazolo[3,4-d]pyrimidin-1-yl)piperidine-1-carboxylate]",2500 nM,4600 nM,12000 nM
"CC(C)OC(=O)N1CCC(n2ncc3c(N4CCOCC4)nc(-c4ccc(NC(=O)Nc5cccnc5)cc4)nc32)CC1 [Compound 838, isopropyl 4-(4-morpholin-4-yl-6-{4-[(pyridin-3-ylcarbamoyl)amino]phenyl}-1H-pyrazolo[3,4-d]pyrimidin-1-yl)piperidine-1-carboxylate]",28 nM,150 nM,74 nM
"CC(C)OC(=O)N1CCC(n2ncc3c(N4CCOCC4)nc(-c4ccc(NC(=O)Nc5ccncc5)cc4)nc32)CC1 [Compound 839, isopropyl 4-(4-morpholin-4-yl-6-{4-[(pyridin-4-ylcarbamoyl)amino]phenyl}-1H-pyrazolo[3,4-d]pyrimidin-1-yl)piperidine-1-carboxylate]",27 nM,68 nM,37 nM
"COC(=O)Nc1ccc(-c2nc(N3CCOC(C)C3)c3cnn(C4CCN(C(=O)OC)CC4)c3n2)cc1 (stereo not drawn) [Compound 840, methyl 4-[6-{4-[(methoxycarbonyl)amino]phenyl}-4-(2-methylmorpholin-4-yl)-1H-pyrazolo[3,4-d]pyrimidin-1-yl]piperidine-1-carboxylate]",3200 nM,10000 nM,3550 nM
"CNC(=O)Nc1ccc(-c2nc(N3CCOC(C)C3)c3cnn(C4CCN(C(=O)OC)CC4)c3n2)cc1 (stereo not drawn) [Compound 841, methyl 4-[6-{4-[(methylcarbamoyl)amino]phenyl}-4-(2-methylmorpholin-4-yl)-1H-pyrazolo[3,4-d]pyrimidin-1-yl]piperidine-1-carboxylate]",150 nM,500 nM,268 nM
"CCNC(=O)Nc1ccc(-c2nc(N3CCOC(C)C3)c3cnn(C4CCN(C(=O)OC)CC4)c3n2)cc1 (stereo not drawn) [Compound 842, methyl 4-[6-{4-[(ethylcarbamoyl)amino]phenyl}-4-(2-methylmorpholin-4-yl)-1H-pyrazolo[3,4-d]pyrimidin-1-yl]piperidine-1-carboxylate]",70 nM,1000 nM,721 nM
"COC(=O)N1CCC(n2ncc3c(N4CCOC(C)C4)nc(-c4ccc(NC(=O)NC5CC5)cc4)nc32)CC1 (stereo not drawn) [Compound 843, methyl 4-[6-{4-[(cyclopropylcarbamoyl)amino]phenyl}-4-(2-methylmorpholin-4-yl)-1H-pyrazolo[3,4-d]pyrimidin-1-yl]piperidine-1-carboxylate]",80 nM,900 nM,1380 nM
"COC(=O)N1CCC(n2ncc3c(N4CCOC(C)C4)nc(-c4ccc(NC(=O)NCCF)cc4)nc32)CC1 (stereo not drawn) [Compound 844, methyl 4-[6-(4-{[(2-fluoroethyl)carbamoyl]amino}phenyl)-4-(2-methylmorpholin-4-yl)-1H-pyrazolo[3,4-d]pyrimidin-1-yl]piperidine-1-carboxylate]",59 nM,700 nM,896 nM
"COC(=O)N1CCC(n2ncc3c(N4CCOC(C)C4)nc(-c4ccc(NC(=O)NCCO)cc4)nc32)CC1 (stereo not drawn) [Compound 845, methyl 4-[6-(4-{[(2-hydroxyethyl)carbamoyl]amino}phenyl)-4-(2-methylmorpholin-4-yl)-1H-pyrazolo[3,4-d]pyrimidin-1-yl]piperidine-1-carboxylate]",1100 nM,1600 nM,402 nM
"COC(=O)N1CCC(n2ncc3c(N4CCOC(C)C4)nc(-c4ccc(NC(=O)Nc5cccnc5)cc4)nc32)CC1 (stereo not drawn) [Compound 846, methyl 4-[4-(2-methylmorpholin-4-yl)-6-{4-[(pyridin-3-ylcarbamoyl)amino]phenyl}-1H-pyrazolo[3,4-d]pyrimidin-1-yl]piperidine-1-carboxylate]",58 nM,500 nM,81 nM
"COC(=O)N1CCC(n2ncc3c(N4CCOC(C)C4)nc(-c4ccc(NC(=O)Nc5ccccn5)cc4)nc32)CC1 (stereo not drawn) [Compound 847, methyl 4-[4-(2-methylmorpholin-4-yl)-6-{4-[(pyridin-2-ylcarbamoyl)amino]phenyl}-1H-pyrazolo[3,4-d]pyrimidin-1-yl]piperidine-1-carboxylate]",13000 nM,15000 nM,8320 nM
"COC(=O)N1CCC(n2ncc3c(N4CCOC(C)C4)nc(-c4ccc(NC(=O)Nc5ccccc5)cc4)nc32)CC1 (stereo not drawn) [Compound 848, methyl 4-[6-{4-[(anilinocarbonyl)amino]phenyl}-4-(2-methylmorpholin-4-yl)-1H-pyrazolo[3,4-d]pyrimidin-1-yl]piperidine-1-carboxylate]",62 nM,720 nM,60 nM
"CCCOC(=O)N1CCC(n2ncc3c(N4CCOCC4)nc(-c4ccc(NC(=O)Nc5ccccc5)cc4)nc32)CC1 [Compound 849, propyl 4-(4-morpholin-4-yl-6-{4-[(phenylcarbamoyl)amino]phenyl}-1H-pyrazolo[3,4-d]pyrimidin-1-yl)piperidine-1-carboxylate]",95 nM,300 nM,24 nM
"CCCOC(=O)N1CCC(n2ncc3c(N4CCOCC4)nc(-c4ccc(NC(=O)Nc5cccnc5)cc4)nc32)CC1 [Compound 850, propyl 4-(4-morpholin-4-yl-6-{4-[(pyridin-3-ylcarbamoyl)amino]phenyl}-1H-pyrazolo[3,4-d]pyrimidin-1-yl)piperidine-1-carboxylate]",< 27 nM,120 nM,38 nM
"CCCOC(=O)N1CCC(n2ncc3c(N4CCOCC4)nc(-c4ccc(NC(=O)Nc5ccncc5)cc4)nc32)CC1 [Compound 851, propyl 4-(4-morpholin-4-yl-6-{4-[(pyridin-4-ylcarbamoyl)amino]phenyl}-1H-pyrazolo[3,4-d]pyrimidin-1-yl)piperidine-1-carboxylate]",< 27 nM,110 nM,22 nM
"CCCOC(=O)N1CCC(n2ncc3c(N4CCOCC4)nc(-c4ccc(NC(=O)NCC)cc4)nc32)CC1 [Compound 852, propyl 4-(6-{4-[(ethylcarbamoyl)amino]phenyl}-4-morpholin-4-yl-1H-pyrazolo[3,4-d]pyrimidin-1-yl)piperidine-1-carboxylate]",80 nM,510 nM,577 nM
"CCCNC(=O)Nc1ccc(-c2nc(N3CCOCC3)c3cnn(C4CCN(C(=O)OCCC)CC4)c3n2)cc1 [Compound 853, propyl 4-(4-morpholin-4-yl-6-{4-[(propylcarbamoyl)amino]phenyl}-1H-pyrazolo[3,4-d]pyrimidin-1-yl)piperidine-1-carboxylate]",130 nM,1000 nM,824 nM
"CCCOC(=O)N1CCC(n2ncc3c(N4CCOCC4)nc(-c4ccc(NC(=O)NCCF)cc4)nc32)CC1 [Compound 854, propyl 4-[6-(4-{[(2-fluoroethyl)carbamoyl]amino}phenyl)-4-morpholin-4-yl-1H-pyrazolo[3,4-d]pyrimidin-1-yl]piperidine-1-carboxylate]",27 nM,330 nM,600 nM
"CCCOC(=O)N1CCC(n2ncc3c(N4CCOCC4)nc(-c4ccc(NC(=O)NCCO)cc4)nc32)CC1 [Compound 855, propyl 4-[6-(4-{[(2-hydroxyethyl)carbamoyl]amino}phenyl)-4-morpholin-4-yl-1H-pyrazolo[3,4-d]pyrimidin-1-yl]piperidine-1-carboxylate]",430 nM,330 nM,186 nM
